Laboratory results reported in paper PMC6100301, “Cytotoxic and N-Acetyltransferase Inhibitory Meroterpenoids from Ganoderma cochlear” (Molecules : A Journal of Synthetic Chemistry and Natural …, 2018).

How the values were obtained:
recombinant NAT2 = target: T1, recombinant NAT2 (Homo sapiens, UniProt P11245); assay: N-Acetyltransferase (NAT) inhibition, fluorescent probe assay; format: biochemical; details: 30 min incubation; for NAT2 inhibition at 10 μM: positive control quercetin 10 μM (Figure 4)
T1 construct: purchased Corning Company, Corning, NY, USA 456282
T1 sequence (P11245 1-290): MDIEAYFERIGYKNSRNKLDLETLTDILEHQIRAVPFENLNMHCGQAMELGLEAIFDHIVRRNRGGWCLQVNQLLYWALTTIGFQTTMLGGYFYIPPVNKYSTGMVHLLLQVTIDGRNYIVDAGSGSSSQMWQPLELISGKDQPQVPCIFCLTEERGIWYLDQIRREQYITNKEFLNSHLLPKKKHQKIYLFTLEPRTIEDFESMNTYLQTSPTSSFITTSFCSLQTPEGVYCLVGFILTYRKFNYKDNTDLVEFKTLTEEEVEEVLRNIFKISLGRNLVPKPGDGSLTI

[1] = system: A549 human lung cancer cell line; assay: Cytotoxicity, CCK-8 cell viability assay; format: cell-based; details: for Cytotoxic activity against A549 cells at 40 μM: screening (Figure S46); for IC50: Homo sapiens, A549 cells, CCK-8 assay, 24 h drug treatment
Experimental: (§1) All the isolated meroterpenoids were evaluated for their cytotoxic activity against three human lung cancer cell lines (H1975, PC9, A549). […] Besides, 2 and 5 are also found to be active against H1975 and PC9 cells at 40 μM. With this, the cytotoxic potency of 2 and 5 toward three cancer cell lines were further determined using the CCK-8 assay.
(§2) The human NSCLC cell line (NCL-H1975) was purchased from Shanghai Cell Bank of Chinese Academy of Sciences, (Shanghai, China). PC9 and A549 were obtained from American Type Culture Collection (ATCC, Manassas, VA, USA). Cells were cultured in DMEM (Gibco, Grand Island, NY, USA) with 4.5 g/L glucose and 10% FBS (Gibco, Grand Island, NY, USA). Erlotinib used in the experiments were purchased from Selleck (Selleck Chemicals, Houston, TX, USA). Cytotoxicity was determined using the previously described method. Three human lung cancer cell lines were incubated in 96-well plates (5000 cells/well) respectively to attach overnight and then exposed to drug treatments for additional 24 h. And the CCK solution was added, after 2 h of incubation, the absorbance was measured at a wavelength of 450 nm. Cell viability was measured by a TransDetect® Cell Counting Kit (TransGen Biotech, Beijing, China). The IC50 values were calculated using the GraphPad Prism 5.0 (GraphPad Software, San Diego, CA, USA).

[2] = system: PC9 human lung cancer cell line; assay: Cytotoxicity, CCK-8 cell viability assay; format: cell-based; details: for Cytotoxic activity against PC9 cells at 40 μM: screening (Figure S46); for IC50: Homo sapiens, PC-9, PC9 cells, CCK-8 assay, 24 h drug treatment
Experimental: as §1, §2

[3] = system: H1975 human lung cancer cell line; assay: Cytotoxicity, CCK-8 cell viability assay; format: cell-based; details: for Cytotoxic activity against H1975 cells at 40 μM: screening (Figure S46); for IC50: Homo sapiens, NCI-H1975, H1975 cells, CCK-8 assay, 24 h drug treatment
Experimental: as §1, §2

NAT2 inhibition at 10 μM (recombinant NAT2) | IC50 (recombinant NAT2; 0.5-10 μM, read-out: IC50 toward NAT2) | SMILES | Cytotoxic activity against A549 cells at 40 μM [1] | IC50 [1] | Cytotoxic activity against PC9 cells at 40 μM [2] | IC50 [2] | Cytotoxic activity against H1975 cells at 40 μM [3] | IC50 [3]
could inhibit NAT2 | – | CC(C)=CCCC(C)=CCCC1=C[C@@](c2cc(O)ccc2O)(c2oc(-c3cc(O)ccc3O)cc2CCC=C(C)CCC=C(C)C)OC1=O [(−)-1, (−)-gancochlearol C] | – | – | – | – | – | –
– | – | CC(C)=CCC/C(C)=C/CC/C(=C/Cc1cc(O)ccc1O)CO [Compound 5, ganomycin F] | most active | 21.6 µM | active | 35.7 µM | active | 19.5 µM
– | – | C#Cc1cccc(Nc2ncnc3cc(OCCOC)c(OCCOC)cc23)c1 [Erlotinib, reference compound] | – | 4.59 µM | – | 0.085 µM | – | 7.66 µM
more potent than quercetin | 5.29 µM | CC(C)=CCCC(C)=CCCC1=C[C@](c2cc(O)ccc2O)(c2oc(-c3cc(O)ccc3O)cc2CCC=C(C)CCC=C(C)C)OC1=O [(+)-1, (+)-gancochlearol C] | – | – | – | – | – | –
– | – | CC(=O)OC/C(=C\Cc1cc(O)ccc1O)CC/C=C(\C)CCC=C(C)C [Compound 2, Gancochlearol D] | cytotoxic | 30.7 µM | active | 40.6 µM | active | 32.4 µM
